From US9006187B2, “Thiophene derivative as SGLT2 inhibitor and pharmaceutical composition comprising same” (Green Cross Corporation, priority 2010, dated 2015)

molecular target: Human SGLT2 (hSGLT2) (Homo sapiens (Human), UniProt P31639); experiment: Inhibitory effects on human SGLT2 activities: sodium-dependent 14C-AMG glucose transport (uptake) assay in CHO cells expressing hSGLT2; settings: read-out: hSGLT2 Inhibitory Activity IC50; CHO cells stably expressing hSGLT2; 14C-AMG uptake, 37° C., 2 h; single determinations for examples; in-house assay
Sequence (P31639 whole entry): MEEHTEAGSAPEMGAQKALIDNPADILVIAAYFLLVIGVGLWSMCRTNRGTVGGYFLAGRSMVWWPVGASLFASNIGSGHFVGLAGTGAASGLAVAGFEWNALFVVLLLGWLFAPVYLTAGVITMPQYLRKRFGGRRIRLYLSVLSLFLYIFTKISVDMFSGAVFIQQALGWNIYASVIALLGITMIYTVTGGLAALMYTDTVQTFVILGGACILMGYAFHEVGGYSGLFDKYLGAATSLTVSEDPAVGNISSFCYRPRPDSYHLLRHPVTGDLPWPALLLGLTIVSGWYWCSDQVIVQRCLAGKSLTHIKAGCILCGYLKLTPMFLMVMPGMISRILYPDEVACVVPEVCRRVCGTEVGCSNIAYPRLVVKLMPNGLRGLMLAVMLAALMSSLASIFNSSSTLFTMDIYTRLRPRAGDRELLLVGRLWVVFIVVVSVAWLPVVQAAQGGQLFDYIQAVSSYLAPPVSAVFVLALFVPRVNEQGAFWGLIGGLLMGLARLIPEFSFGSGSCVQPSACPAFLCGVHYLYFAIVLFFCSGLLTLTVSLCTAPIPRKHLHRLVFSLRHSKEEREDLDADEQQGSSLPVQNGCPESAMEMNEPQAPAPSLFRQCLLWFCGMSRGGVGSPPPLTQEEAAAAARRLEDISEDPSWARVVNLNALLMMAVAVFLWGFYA

Compound | IC50 [nM]
OC[C@H]1O[C@@H](c2cc(Cc3ccc(OC4CCCC4)cc3)c(Cl)s2)[C@H](O)[C@@H](O)[C@@H]1O [Example 11, (2R,3R,4S,5S,6R)-2-(5-chloro-4-(4-(cyclopentyloxy)benzyl)thiophen-2-yl)-6-(hydroxymethyl)-tetrahydro-2H-pyran-3,4,5-triol] | 57.2
C=CCOc1ccc(Cc2cc([C@@H]3O[C@H](CO)[C@@H](O)[C@H](O)[C@H]3O)sc2C)cc1 [Example 22, (2R,3R,4S,5S,6R)-2-(4-(4-(allyloxy)benzyl)-5-methylthiophen-2-yl)-6-(hydroxymethyl)-tetrahydro-2H-pyran-3,4,5-triol] | 27.5
CCCOc1ccc(Cc2cc([C@@H]3O[C@H](CO)[C@@H](O)[C@H](O)[C@H]3O)sc2Cl)cc1 [Example 5, (2R,3R,4S,5S,6R)-2-(5-chloro-4-(4-propoxybenzyl)thiophen-2-yl)-6-(hydroxymethyl)-tetrahydro-2H-pyran-3,4,5-triol] | 65
CC(C)Oc1ccc(Cc2cc([C@@H]3O[C@H](CO)[C@@H](O)[C@H](O)[C@H]3O)sc2Cl)cc1 [Example 9, (2R,3R,4S,5S,6R)-2-(5-chloro-4-(4-isopropoxybenzyl)thiophen-2-yl)-6-(hydroxymethyl)-tetrahydro-2H-pyran-3,4,5-triol] | 11.9
C=CCOc1ccc(Cc2cc([C@@H]3O[C@H](CO)[C@@H](O)[C@H](O)[C@H]3O)sc2Cl)cc1 [Example 4, (2R,3R,4S,5S,6R)-2-(4-(4-(allyloxy)benzyl)-5-chlorothiophen-2-yl)-6-(hydroxymethyl)-tetrahydro-2H-pyran-3,4,5-triol] | 54.6
OC[C@H]1O[C@@H](c2cc(Cc3ccc(-c4ccc(F)cc4)s3)c(Cl)s2)[C@H](O)[C@@H](O)[C@@H]1O [Example 3, (2R,3R,4S,5S,6R)-2-(5-chloro-4-((5-(4-fluorophenyl)thiophen-2-yl)methyl)thiophen-2-yl)-6-(hydroxymethyl)-tetrahydro-2H-pyran-3,4,5-triol] | 91.3
CC#CCOc1ccc(Cc2cc([C@@H]3O[C@H](CO)[C@@H](O)[C@H](O)[C@H]3O)sc2Cl)cc1 [Example 15, (2R,3R,4S,5S,6R)-2-(4-(4-(but-2-ynyloxy)benzyl)-5-chlorothiophen-2-yl)-6-(hydroxymethyl)-tetrahydro-2H-pyran-3,4,5-triol] | 94
OC[C@H]1O[C@@H](c2cc(Cc3ccc(O)cc3)c(Cl)s2)[C@H](O)[C@@H](O)[C@@H]1O [Example 6, (2R,3R,4S,5S,6R)-2-(5-chloro-4-(4-hydroxybenzyl)thiophen-2-yl)-6-(hydroxymethyl)-tetrahydro-2H-pyran-3,4,5-triol] | 140
Cc1cc([C@@H]2O[C@H](CO)[C@@H](O)[C@H](O)[C@H]2O)sc1Cc1ccc(Cl)cc1 [Example 28, (2R,3R,4S,5S,6R)-2-(5-(4-chlorobenzyl)-4-methylthiophen-2-yl)-6-(hydroxymethyl)tetrahydro-2H-pyran-3,4,5-triol] | 451
Cc1cc([C@@H]2O[C@H](CO)[C@@H](O)[C@H](O)[C@H]2O)sc1Cc1ccc(C(C)(C)C)cc1 [Example 27, (2R,3R,4S,5S,6R)-2-(5-(4-tert-butylbenzyl)-4-methylthiophen-2-yl)-6-(hydroxymethyl)tetrahydro-2H-pyran-3,4,5-triol] | 88.3
CCc1ccc(Cc2cc([C@@H]3O[C@H](CO)[C@@H](O)[C@H](O)[C@H]3O)sc2Cl)cc1 [Example 17, (2R,3R,4S,5S,6R)-2-(5-chloro-4-(4-ethylbenzyl)thiophen-2-yl)-6-(hydroxymethyl)-tetrahydro-2H-pyran-3,4,5-triol] | 4.47
C#CCOc1ccc(Cc2cc([C@@H]3O[C@H](CO)[C@@H](O)[C@H](O)[C@H]3O)sc2Cl)cc1 [Example 8, (2R,3R,4S,5S,6R)-2-(5-chloro-4-(4-(prop-2-ynyloxy)benzyl)thiophen-2-yl)-6-(hydroxymethyl)-tetrahydro-2H-pyran-3,4,5-triol] | 111
CCSc1ccc(Cc2cc([C@@H]3O[C@H](CO)[C@@H](O)[C@H](O)[C@H]3O)sc2Cl)cc1 [Example 7, (2R,3R,4S,5S,6R)-2-(5-chloro-4-(4-(ethylthio)benzyl)thiophen-2-yl)-6-(hydroxymethyl)-tetrahydro-2H-pyran-3,4,5-triol] | 48.4
CCCc1ccc(Cc2cc([C@@H]3O[C@H](CO)[C@@H](O)[C@H](O)[C@H]3O)sc2Cl)cc1 [Example 18, (2R,3R,4S,5S,6R)-2-(5-chloro-4-(4-propylbenzyl)thiophen-2-yl)-6-(hydroxymethyl)-tetrahydro-2H-pyran-3,4,5-triol] | 10.3
Cc1sc([C@@H]2O[C@H](CO)[C@@H](O)[C@H](O)[C@H]2O)cc1Cc1ccc(O)cc1 [Example 23, (2R,3R,4S,5S,6R)-2-(4-(4-hydroxybenzyl)-5-methylthiophen-2-yl)-6-(hydroxymethyl)-tetrahydro-2H-pyran-3,4,5-triol] | 50.2
OC[C@H]1O[C@@H](c2cc(Cc3ccc(OC4CCOC4)cc3)c(Cl)s2)[C@H](O)[C@@H](O)[C@@H]1O (stereo partly drawn) [Example 16, (2R,3R,4S,5S,6R)-2-(5-chloro-4-(4-(tetrahydrofuran-3-yloxy)benzyl)thiophen-2-yl)-6-(hydroxymethyl)-tetrahydro-2H-pyran-3,4,5-triol] | 162

Compound | IC50 [nM]
COCCOc1ccc(Cc2cc([C@@H]3O[C@H](CO)[C@@H](O)[C@H](O)[C@H]3O)sc2Cl)cc1 [Example 10, (2R,3R,4S,5S,6R)-2-(5-chloro-4-(4-(2-methoxyethoxy)benzyl)thiophen-2-yl)-6-(hydroxymethyl)-tetrahydro-2H-pyran-3,4,5-triol] | 115
Cc1ccc(Cc2cc([C@@H]3O[C@H](CO)[C@@H](O)[C@H](O)[C@H]3O)sc2Cl)cc1 [Example 14, (2R,3R,4S,5S,6R)-2-(5-chloro-4-(4-methylbenzyl)thiophen-2-yl)-6-(hydroxymethyl)-tetrahydro-2H-pyran-3,4,5-triol] | 60.2
Cc1sc([C@@H]2O[C@H](CO)[C@@H](O)[C@H](O)[C@H]2O)cc1Cc1ccc(-c2ccc(F)cc2)s1 [Example 21, (2R,3R,4S,5S,6R)-2-(4-((5-(4-fluorophenyl)thiophen-2-yl)methyl)-5-methylthiophen-2-yl)-6-(hydroxymethyl)-tetrahydro-2H-pyran-3,4,5-triol] | 21.1
CCOCCOc1ccc(Cc2cc([C@@H]3O[C@H](CO)[C@@H](O)[C@H](O)[C@H]3O)sc2Cl)cc1 [Example 13, (2R,3R,4S,5S,6R)-2-(5-chloro-4-(4-(2-ethoxyethoxy)benzyl)thiophen-2-yl)-6-(hydroxymethyl)-tetrahydro-2H-pyran-3,4,5-triol] | 70.7
CCOc1ccc(Cc2cc([C@@H]3O[C@H](CO)[C@@H](O)[C@H](O)[C@H]3O)sc2C)cc1 [Example 19, (2R,3R,4S,5S,6R)-2-(4-(4-ethoxybenzyl)-5-methylthiophen-2-yl)-6-(hydroxymethyl)-tetrahydro-2H-pyran-3,4,5-triol] | 8.73
COc1ccc(Cc2cc([C@@H]3O[C@H](CO)[C@@H](O)[C@H](O)[C@H]3O)sc2C)cc1 [Example 20, (2R,3S,4S,5R,6R)-2-(hydroxymethyl)-6-(4-(4-methoxybenzyl)-5-methylthiophen-2-yl)-tetrahydro-2H-pyran-3,4,5-triol] | 11.5
CCOc1ccc(Cc2sc([C@@H]3O[C@H](CO)[C@@H](O)[C@H](O)[C@H]3O)cc2C)cc1 [Example 31, (2R,3R,4S,5S,6R)-2-(5-(4-ethoxybenzyl)-4-methylthiophen-2-yl)-6-(hydroxymethyl)tetrahydro-2H-pyran-3,4,5-triol] | 71.4
Cc1cc([C@@H]2O[C@H](CO)[C@@H](O)[C@H](O)[C@H]2O)sc1Cc1ccc(F)cc1 [Example 29, (2R,3R,4S,5S,6R)-2-(5-(4-fluorobenzyl)-4-methylthiophen-2-yl)-6-(hydroxymethyl)tetrahydro-2H-pyran-3,4,5-triol] | > 10000
CSc1ccc(Cc2cc([C@@H]3O[C@H](CO)[C@@H](O)[C@H](O)[C@H]3O)sc2Cl)cc1 [Example 12, (2R,3R,4S,5S,6R)-2-(5-chloro-4-(4-(methylthio)benzyl)thiophen-2-yl)-6-(hydroxymethyl)-tetrahydro-2H-pyran-3,4,5-triol] | 12.8
CCc1ccc(Cc2sc([C@@H]3O[C@H](CO)[C@@H](O)[C@H](O)[C@H]3O)cc2C)cc1 [Example 25, (2R,3R,4S,5S,6R)-2-(5-(4-ethylbenzyl)-4-methylthiophen-2-yl)-6-(hydroxymethyl)tetrahydro-2H-pyran-3,4,5-triol] | 24.8
CCOc1ccc(Cc2cc([C@@H]3O[C@H](CO)[C@@H](O)[C@H](O)[C@H]3O)sc2Cl)cc1 [Example 1, (2R,3R,4S,5S,6R)-2-(5-chloro-4-(4-ethoxybenzyl)thiophen-2-yl)-6-(hydroxymethyl)-tetrahydro-2H-pyran-3,4,5-triol] | 34.6
COc1ccc(Cc2cc([C@@H]3O[C@H](CO)[C@@H](O)[C@H](O)[C@H]3O)sc2Cl)cc1 [Example 2, (2R,3R,4S,5S,6R)-2-(5-chloro-4-(4-methoxybenzyl)thiophen-2-yl)-6-(hydroxymethyl)-tetrahydro-2H-pyran-3,4,5-triol] | 86.5
CCCc1ccc(Cc2sc([C@@H]3O[C@H](CO)[C@@H](O)[C@H](O)[C@H]3O)cc2C)cc1 [Example 24, (2R,3S,4S,5R,6R)-2-(hydroxymethyl)-6-(4-methyl-5-(4-propylbenzyl)thiophen-2-yl)tetrahydro-2H-pyran-3,4,5-triol] | 59.8
Cc1ccc(Cc2sc([C@@H]3O[C@H](CO)[C@@H](O)[C@H](O)[C@H]3O)cc2C)cc1 [Example 26, (2R,3S,4S,5R,6R)-2-(hydroxymethyl)-6-(4-methyl-5-(4-methylbenzyl)thiophen-2-yl)tetrahydro-2H-pyran-3,4,5-triol] | 69.6
COc1ccc(Cc2sc([C@@H]3O[C@H](CO)[C@@H](O)[C@H](O)[C@H]3O)cc2C)cc1 [Example 30, (2R,3S,4S,5R,6R)-2-(hydroxymethyl)-6-(5-(4-methoxybenzyl)-4-methylthiophen-2-yl)tetrahydro-2H-pyran-3,4,5-triol] | 68.9
